Source: US20180071317A1, “USE OF AGENTS THAT ALTER THE PERITUMORAL ENVIRONMENT FOR THE TREATMENT OF CANCER” (SERVICIO ANDALUZ DE SALUD, priority 2011, published 2018)

How the values were obtained:
[1] = system: fibroblasts (PHF) co-cultured with human fibrosarcoma tumor cells (HT-1080); experiment: Marker expression (IHC) in PHF co-cultured with HT-1080 tumor cells; type: cell-based; conditions: co-culture with HT-1080; SP 1 μM + antagonist 1 μM; 48 h;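 further: cultures grown in fresh human plasma from a healthy donor, six replicates, value is percent of fibroblasts positive for the marker, compared with fibroblasts cultured without tumor cells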
Method: (§1) All cultures were maintained 48 hours, following which the same cells were included in paraffin blocks for subsequent analysis of the expression of different markers by immunohistochemistry (see Example 1). […] All experiments were carried out sixfold. Analyzed markers in fibroblast cells (stromal cells) were: TGF-α, TGF-β1, TGF-β2, TGF-β3, SPARC, MMP-3, MMP-7, MMP-9, MMP-11, MMP-13 and MMP-14.

[2] = system: fibroblasts (PHF) co-cultured with tumor cells of human cervix carcinoma (KB); experiment: Marker expression (IHC) in PHF co-cultured with KB tumor cells; type: cell-based; conditions: co-culture with KB; SP 1 μM + antagonist 1 μM; 48 h;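 further: percentage of PHF fibroblasts showing expression of each marker, cultured in fresh blood plasma from a healthy human donor, six replicates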
Method: as §1

[3] = system: fibroblasts (PHF) co-cultured with tumor cells of human Burkitt lymphoma (CA-46); experiment: Marker expression (IHC) in PHF co-cultured with CA-46 tumor cells; type: cell-based; conditions: PHF co-cultured with CA-46 + SP + NK1 antagonist;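 further: percentage of PHF fibroblasts positive for each marker, cultures grown in fresh human plasma from a healthy donor, six replicates, compared with fibroblasts cultured alone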
Method: (§2) All cultures were maintained 48 hours, following which the same cells were included in paraffin blocks for subsequent analysis of the expression of different markers by immunohistochemistry (see Example 1). The primary antibodies used to perform immunohistochemical assays and their concentration are detailed in Example 2. All experiments were carried out sixfold. Analyzed markers in fibroblast cells (stromal cells) were: TGF-α, TGF-β1, TGF-β2, TGF-β3, SPARC, MMP-3, MMP-7, MMP-9, MMP-11, MMP-13 and MMP-14.

[4] = system: fibroblasts (PHF) co-cultured with tumor cells of human colon adenocarcinoma (SW-403); experiment: Marker expression (IHC) in PHF co-cultured with SW-403 tumor cells; type: cell-based; conditions: co-culture with SW-403; SP 1 μM + antagonist 1 μM; 48 h
Method: as §2

[5] = system: fibroblasts (PHF) co-cultured with tumor cells of human breast carcinoma (MCF-7); experiment: Marker expression (IHC) in PHF co-cultured with MCF-7 tumor cells; type: cell-based; conditions: co-culture with MCF-7; SP 1 μM + antagonist 1 μM; 48 h;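 further: value is the percentage of fibroblasts positive for each marker, with fibroblasts cultured alone as reference, grown in fresh plasma from a healthy donor, six replicates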
Method: as §1

[6] = system: fibroblasts of tumors produced by human glioma tumor line (GAMG); experiment: Marker expression (IHC) in fibroblasts of tumor or peritumoral area, mouse model, GAMG; type: in vivo; conditions: GAMG tumors in mice, 30 mg/kg/day oral, 7 days
Method: In vitro tests conducted in Example 5 are now carried out in an experimental model in mice in vivo. […] Subsequently, the expression in fibroblasts tumoral and peritumoral area of molecular markers associated with progression and maintenance of tumors: TGF-α, TGF-β1, TGF-β2, TGF-β3, MMP-7, MMP-11, MMP-14 were analyzed by immunohistochemistry.
Were injected with 2×10^7 cells tumors (corresponding, in each case to each of the tumor types as specified in Table 9) in 200 of PBS subcutaneously μl. […] Mice were randomized into two groups when the tumors reached a volume of 75 mm^3 One group was treated with non-peptide receptor antagonists NK1 and the other with placebo 200μ1. […] Tumors and samples of non-neoplastic stromal areas remote from the tumor were halved, formalin fixed (4%) and then were included in paraffin blocks for analysis by immunohistochemistry.
The expression on fibroblast cells obtained in the animal model was analyzed by immunohistochemistry, of the above markers: TGF-α, TGF-β1, TGF-β2, TGF-β3, MMP-7, MMP-1 1, MMP-14MP-14. Tables 32 to 35 depict the type of label used and the average percentage of fibroblasts present in non-tumor areas, tumor and peritumoral (±SD) which were expressing the marker shown in each of the tumor types developed from of the different cell lines used. This process was realized in mice treated with non-peptide antagonists of NK1 receptor and in untreated animals (control).

[7] = system: human primary macrophages (PHM); experiment: Marker expression (immunohistochemistry) in human primary macrophages with SP alone or with NK1 antagonists; type: cell-based; conditions: SP 1 μM + antagonist 1 μM; 48 h
Method: In this sense the next step was to analyze the effect exerted by the treatment with non-peptide NK1 antagonists in human primary macrophages (PHM) obtained and purified from pleural effusion samples obtained from men with chronic age range between 45 and 55 years. Briefly, the pleural fluid from chronic (rich in macrophages) was centrifuged.
After 48 hours of culture, cells were harvested and cellular paraffin blocks were constructed for immunohistochemical analysis (see Example 1). To analyze the expression of markers EGF, MMP-9, VEGF and IL-8 antibodies were used as follows: EGF (rabbit monoclonal antibody, anti-EGF; 07-1432. Merck-Millipore), MMP-9 (polyclonal rabbit anti-MMP-9: SAB4501896, Sigma-Aldrich), VEGF (mouse monoclonal anti-VEGF, GF25-100UG, Merck-Millipore) and TNF-α (mouse monoclonal anti-TNF-α, number MAB 1021 catalogue, obtained from Merck-Millipore). All of these antibodies were used at a concentration of 1/1000. System for labelling with a secondary antibody specific for the primary antibodies obtained from rabbit or mouse was used, as was necessary in each case, both the Envision (Dako). All experiments were carried out sixfold.

[8] = system: mononuclear cells; experiment: Marker expression (immunohistochemistry) in mononuclear blood cells with SP alone or with NK1 antagonists; type: cell-based, human; conditions: SP 1 μM + antagonist 1 μM; 48 h
From the text: Briefly, heparinized blood from healthy donors was centrifuged so as to separate the various components thereof. Red blood cells remained at the bottom of the tube. Above them was a small white layer composed of the white blood cells and above, on top of the tube, the blood plasma. The layer of white cells was distributed in a culture plate of 24 wells by adding in each the same concentration of blood plasma from the same donor, supplemented with 1% antibiotic-antimycotic (Invitrogen). In each well, approximately 1000 cells (PHF) skin from the dermis were further added, obtained as previously described in Example 2. […] After 48 hours of incubation, cells were collected and embedded in paraffin for expression analysis by immunohistochemical techniques (as described in Example 1).
The expression of TGF molecular markers (anti-TGF 2, SAB4502956) and NF-kB (anti-NF-kB, SAB4501992) using specific antibodies against them were analyzed. All antibodies used were rabbit polyclonal antibodies obtained from Sigma Aldrich and were used at a concentration of 1/1000. All experiments were carried out sixfold.

[9] = system: macrophages in co-culture with cells isolated from primary human tumors; experiment: Marker expression (IHC) in macrophages co-cultured with primary human tumor cells (colon, breast, ovarian, lung carcinoma, melanoma); type: cell-based; conditions: SP 1 μM + antagonist 1 μM;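 further: macrophages came from pleural or peritoneal washings of the patient who also supplied the tumor cells, and both were co-cultured on fresh blood plasma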
Method: To check that the interaction of tumor cells obtained directly from primary human immune cell/inflammatory (macrophages) cells, obtained from the patient stimulate secretion of substances by these macrophages recognized as important in survival of both cell types and in the progression of tumor cells, co-cultures were performed on fresh blood plasma, immune cell/inflammatory (macrophages) with tumor cells derived from primary tumors. All obtained from the same patient, to build an experimental model similar to human physiology.
Macrophages were obtained from washing or pleural or peritoneal from the same patient from which the primary tumor cells were obtained in each case.

[10] = system: fibroblasts (PHF) co-cultured with tumor cells of human Edwing sarcoma (MHH-ES-1); experiment: Marker expression (IHC) in PHF co-cultured with MHH-ES-1 tumor cells; type: cell-based; conditions: PHF co-cultured with MHH-ES-1 + SP + NK1 antagonist
Method: as §1

[11] = system: fibroblasts of tumors produced by lung carcinoma non small cell human (HCC-44) cells; experiment: Marker expression (IHC) in fibroblasts of tumor or peritumoral area, mouse model, HCC-44; type: in vivo; conditions: HCC-44 tumors in mice, 30 mg/kg/day oral, 7 days
Method: The expression on fibroblast cells obtained in the animal model was analyzed by immunohistochemistry, of the above markers: TGF-α, TGF-β1, TGF-β2, TGF-β3, MMP-7, MMP-1 1, MMP-14MP-14. […] This process was realized in mice treated with non-peptide antagonists of NK1 receptor and in untreated animals (control).

[12] = co-culture with cells isolated from breast carcinoma
[13] = co-culture with cells isolated from colon carcinoma
[14] = co-culture with cells isolated from lung carcinoma
[15] = co-culture with cells isolated from melanoma
[16] = co-culture with cells isolated from ovarian carcinoma

CC(=O)N1CCN([C@H]2CCN(C(=O)N(C)[C@H](C)c3cc(C(F)(F)F)cc(C(F)(F)F)c3)[C@@H](c3ccc(F)cc3C)C2)CC1 [Casopitant]
0%: PHF cells expressing MMP-3 [1] | PHF cells expressing MMP-7 [1] | PHF cells expressing MMP-9 [1] | PHF cells expressing MMP-11 [1] | PHF cells expressing MMP-13 [1] | PHF cells expressing MMP-14 [1] | PHF cells expressing SPARC [1] | PHF cells expressing TGF-α [1] | PHF cells expressing TGF-β1 [1] | PHF cells expressing TGF-β2 [1] | PHF cells expressing TGF-β3 [1] | PHF cells expressing MMP-3 [2] | PHF cells expressing MMP-7 [2] | PHF cells expressing MMP-9 [2] | PHF cells expressing MMP-11 [2] | PHF cells expressing MMP-13 [2] | PHF cells expressing MMP-14 [2] | PHF cells expressing SPARC [2] | PHF cells expressing TGF-α [2] | PHF cells expressing TGF-β1 [2] | PHF cells expressing TGF-β2 [2] | PHF cells expressing TGF-β3 [2] | cells expressing MMP-3 [3] | cells expressing MMP-7 [3] | cells expressing MMP-9 [3] | cells expressing MMP-11 [3] | cells expressing MMP-13 [3] | cells expressing MMP-14 [3] | cells expressing SPARC [3] | cells expressing TGF-α [3] | cells expressing TGF-β1 [3] | cells expressing TGF-β2 [3] | cells expressing TGF-β3 [3] | PHF cells expressing MMP-3 [4] | PHF cells expressing MMP-7 [4] | PHF cells expressing MMP-9 [4] | PHF cells expressing MMP-11 [4] | PHF cells expressing MMP-13 [4] | PHF cells expressing MMP-14 [4] | PHF cells expressing SPARC [4] | PHF cells expressing TGF-α [4] | PHF cells expressing TGF-β1 [4] | PHF cells expressing TGF-β2 [4] | PHF cells expressing TGF-β3 [4] | PHF cells expressing MMP-3 [5] | PHF cells expressing MMP-7 [5] | PHF cells expressing MMP-9 [5] | PHF cells expressing MMP-11 [5] | PHF cells expressing MMP-13 [5] | PHF cells expressing MMP-14 [5] | PHF cells expressing SPARC [5] | PHF cells expressing TGF-α [5] | PHF cells expressing TGF-β1 [5] | PHF cells expressing TGF-β2 [5] | PHF cells expressing TGF-β3 [5] | fibroblasts expressing MMP-7 [6] | fibroblasts expressing MMP-11 [6] | fibroblasts expressing MMP-14 [6] | fibroblasts expressing TGF-α [6] | fibroblasts expressing TGF-β 1 [6] | fibroblasts expressing TGF-β 2 [6] | fibroblasts expressing TGF-β 3 [6] | macrophages expressing EGF [7] | macrophages expressing MMP-9 [7] | macrophages expressing VEGF [7] | mononuclear cells expressing NF-kB [8] | mononuclear cells expressing TGF-β [8] | Percentage of macrophages which expressed EGF [9, 12] | Percentage of macrophages which expressed MMP-9 [9, 12] | Percentage of macrophages which expressed VEGF [9, 12] | Percentage of macrophages which expressed EGF [9, 13] | Percentage of macrophages which expressed MMP-9 [9, 13] | Percentage of macrophages which expressed VEGF [9, 13] | Percentage of macrophages which expressed EGF [9, 14] | Percentage of macrophages which expressed MMP-9 [9, 14] | Percentage of macrophages which expressed VEGF [9, 14] | Percentage of macrophages which expressed EGF [9, 15] | Percentage of macrophages which expressed MMP-9 [9, 15] | Percentage of macrophages which expressed VEGF [9, 15] | Percentage of macrophages which expressed EGF [9, 16] | Percentage of macrophages which expressed MMP-9 [9, 16] | Percentage of macrophages which expressed VEGF [9, 16] | cells expressing MMP-3 [10] | cells expressing MMP-7 [10] | cells expressing MMP-9 [10] | cells expressing MMP-11 [10] | cells expressing MMP-13 [10] | cells expressing MMP-14 [10] | cells expressing SPARC [10] | cells expressing TGF-α [10] | cells expressing TGF-β1 [10] | cells expressing TGF-β2 [10] | cells expressing TGF-β3 [10] | fibroblasts expressing MMP-7 [11] | fibroblasts expressing MMP-11 [11] | fibroblasts expressing MMP-14 [11] | fibroblasts expressing TGF-α [11] | fibroblasts expressing TGF-β 1 [11] | fibroblasts expressing TGF-β 2 [11] | fibroblasts expressing TGF-β 3 [11]

Cc1cc(F)ccc1[C@H]1CNCCN1C(=O)N(C)[C@H](C)c1cc(C(F)(F)F)cc(C(F)(F)F)c1 [Vestipitant]
0%: PHF cells expressing MMP-3 [1] | PHF cells expressing MMP-7 [1] | PHF cells expressing MMP-9 [1] | PHF cells expressing MMP-11 [1] | PHF cells expressing MMP-13 [1] | PHF cells expressing MMP-14 [1] | PHF cells expressing SPARC [1] | PHF cells expressing TGF-α [1] | PHF cells expressing TGF-β1 [1] | PHF cells expressing TGF-β2 [1] | PHF cells expressing TGF-β3 [1] | PHF cells expressing MMP-3 [2] | PHF cells expressing MMP-7 [2] | PHF cells expressing MMP-9 [2] | PHF cells expressing MMP-11 [2] | PHF cells expressing MMP-13 [2] | PHF cells expressing MMP-14 [2] | PHF cells expressing SPARC [2] | PHF cells expressing TGF-α [2] | PHF cells expressing TGF-β1 [2] | PHF cells expressing TGF-β2 [2] | PHF cells expressing TGF-β3 [2] | cells expressing MMP-3 [3] | cells expressing MMP-7 [3] | cells expressing MMP-9 [3] | cells expressing MMP-11 [3] | cells expressing MMP-13 [3] | cells expressing MMP-14 [3] | cells expressing SPARC [3] | cells expressing TGF-α [3] | cells expressing TGF-β1 [3] | cells expressing TGF-β2 [3] | cells expressing TGF-β3 [3] | PHF cells expressing MMP-3 [4] | PHF cells expressing MMP-7 [4] | PHF cells expressing MMP-9 [4] | PHF cells expressing MMP-11 [4] | PHF cells expressing MMP-13 [4] | PHF cells expressing MMP-14 [4] | PHF cells expressing SPARC [4] | PHF cells expressing TGF-α [4] | PHF cells expressing TGF-β1 [4] | PHF cells expressing TGF-β2 [4] | PHF cells expressing TGF-β3 [4] | PHF cells expressing MMP-3 [5] | PHF cells expressing MMP-7 [5] | PHF cells expressing MMP-9 [5] | PHF cells expressing MMP-11 [5] | PHF cells expressing MMP-13 [5] | PHF cells expressing MMP-14 [5] | PHF cells expressing SPARC [5] | PHF cells expressing TGF-α [5] | PHF cells expressing TGF-β1 [5] | PHF cells expressing TGF-β2 [5] | PHF cells expressing TGF-β3 [5] | fibroblasts expressing MMP-7 [6] | fibroblasts expressing MMP-11 [6] | fibroblasts expressing MMP-14 [6] | fibroblasts expressing TGF-α [6] | fibroblasts expressing TGF-β 1 [6] | fibroblasts expressing TGF-β 2 [6] | fibroblasts expressing TGF-β 3 [6] | macrophages expressing EGF [7] | macrophages expressing MMP-9 [7] | macrophages expressing VEGF [7] | mononuclear cells expressing NF-kB [8] | mononuclear cells expressing TGF-β [8] | Percentage of macrophages which expressed EGF [9, 12] | Percentage of macrophages which expressed MMP-9 [9, 12] | Percentage of macrophages which expressed VEGF [9, 12] | Percentage of macrophages which expressed EGF [9, 13] | Percentage of macrophages which expressed MMP-9 [9, 13] | Percentage of macrophages which expressed VEGF [9, 13] | Percentage of macrophages which expressed EGF [9, 14] | Percentage of macrophages which expressed MMP-9 [9, 14] | Percentage of macrophages which expressed VEGF [9, 14] | Percentage of macrophages which expressed EGF [9, 15] | Percentage of macrophages which expressed MMP-9 [9, 15] | Percentage of macrophages which expressed VEGF [9, 15] | Percentage of macrophages which expressed EGF [9, 16] | Percentage of macrophages which expressed MMP-9 [9, 16] | Percentage of macrophages which expressed VEGF [9, 16] | cells expressing MMP-3 [10] | cells expressing MMP-7 [10] | cells expressing MMP-9 [10] | cells expressing MMP-11 [10] | cells expressing MMP-13 [10] | cells expressing MMP-14 [10] | cells expressing SPARC [10] | cells expressing TGF-α [10] | cells expressing TGF-β1 [10] | cells expressing TGF-β2 [10] | cells expressing TGF-β3 [10] | fibroblasts expressing MMP-7 [11] | fibroblasts expressing MMP-11 [11] | fibroblasts expressing MMP-14 [11] | fibroblasts expressing TGF-α [11] | fibroblasts expressing TGF-β 1 [11] | fibroblasts expressing TGF-β 2 [11] | fibroblasts expressing TGF-β 3 [11]
